In the NIST ThermoML archive (doi:10.1021/je101178u):
Where “and” joins values, the source holds several entries; their conditions need not be identical. Identical values can stand only once. ± gives the expanded uncertainty stated by the source.

Conditions: Fluid (supercritical or subcritical phases); for mass density: Buoyancy - hydrostatic balance with magnetic suspension - one sinker; for viscosity: vibrating wire

CCC [propane]
Conditions	mass density	viscosity
273.15 K, 40.93 kPa	0.80164 ± 0.0028 kg/m3	0.00744 ± 4.5e-05 mPa·s
273.15 K, 51.05 kPa	1.002 ± 0.003 kg/m3	0.007443 ± 4.5e-05 mPa·s
273.15 K, 100.76 kPa	1.999 ± 0.0048 kg/m3	0.007443 ± 4.5e-05 mPa·s
273.15 K, 149.62 kPa	3.0011 ± 0.0067 kg/m3	0.007435 ± 4.5e-05 mPa·s
273.15 K, 196.97 kPa	3.9945 ± 0.0087 kg/m3	0.007431 ± 4.5e-05 mPa·s
273.15 K, 243.87 kPa	5.0016 ± 0.011 kg/m3	0.007424 ± 4.5e-05 mPa·s
273.15 K, 289.3 kPa	6.0007 ± 0.013 kg/m3	0.007419 ± 4.5e-05 mPa·s
273.15 K, 333.56 kPa	6.9977 ± 0.015 kg/m3	0.007415 ± 4.5e-05 mPa·s
273.15 K, 376.67 kPa	7.9933 ± 0.017 kg/m3	0.00741 ± 4.5e-05 mPa·s
273.15 K, 420.03 kPa	9.0207 ± 0.019 kg/m3	0.007406 ± 4.5e-05 mPa·s
273.15 K, 459.55 kPa	9.9815 ± 0.021 kg/m3	0.007404 ± 4.5e-05 mPa·s
273.15 K, 459.58 kPa	9.9822 ± 0.021 kg/m3	0.007403 ± 4.5e-05 mPa·s
298.15 K, 44.7 kPa	0.80087 ± 0.0028 kg/m3	0.008128 ± 4.9e-05 mPa·s
298.15 K, 55.55 kPa	0.99693 ± 0.003 kg/m3	0.008133 ± 4.9e-05 mPa·s
298.15 K, 110.39 kPa	1.9989 ± 0.0048 kg/m3	0.00813 ± 4.9e-05 mPa·s
298.15 K, 164.09 kPa	2.9981 ± 0.0067 kg/m3	0.008127 ± 4.9e-05 mPa·s
298.15 K, 164.66 kPa	3.0089 ± 0.0067 kg/m3	0.008126 ± 4.9e-05 mPa·s
298.15 K, 217.05 kPa	4.0022 ± 0.0087 kg/m3	0.008127 ± 4.9e-05 mPa·s
298.15 K, 217.09 kPa	4.0029 ± 0.0087 kg/m3	0.008128 ± 4.9e-05 mPa·s
298.15 K, 268.78 kPa	5.0013 ± 0.011 kg/m3	0.008125 ± 4.9e-05 mPa·s
298.15 K, 318.03 kPa	5.9708 ± 0.013 kg/m3	0.008125 ± 4.9e-05 mPa·s
298.15 K, 369.4 kPa	7.0017 ± 0.015 kg/m3	0.00813 ± 4.9e-05 mPa·s
298.15 K, 418.44 kPa	8.0059 ± 0.017 kg/m3	0.008126 ± 4.9e-05 mPa·s
298.15 K, 464.73 kPa	8.9725 ± 0.019 kg/m3	0.008128 ± 4.9e-05 mPa·s
298.15 K, 498.81 kPa	9.6967 ± 0.021 kg/m3	0.008126 ± 4.9e-05 mPa·s
298.15 K, 513.59 kPa	10.014 ± 0.021 kg/m3	0.008121 ± 4.9e-05 mPa·s
298.15 K, 559.93 kPa	11.023 ± 0.023 kg/m3	0.008129 ± 4.9e-05 mPa·s
298.15 K, 600.75 kPa	11.93 ± 0.025 kg/m3	0.008132 ± 4.9e-05 mPa·s
298.15 K, 604 kPa	12.003 ± 0.025 kg/m3	0.008127 ± 4.9e-05 mPa·s
298.15 K, 646.36 kPa	12.965 ± 0.027 kg/m3	0.008128 ± 4.9e-05 mPa·s and 0.00813 ± 4.9e-05 mPa·s
298.15 K, 691.04 kPa	14.002 ± 0.03 kg/m3	0.008132 ± 4.9e-05 mPa·s
298.15 K, 692.19 kPa	14.029 ± 0.03 kg/m3	0.008133 ± 4.9e-05 mPa·s
298.15 K, 783.49 kPa	16.228 ± 0.034 kg/m3	0.008144 ± 4.9e-05 mPa·s
298.15 K, 849.03 kPa	17.879 ± 0.038 kg/m3	0.00815 ± 4.9e-05 mPa·s
298.15 K, 875.16 kPa	18.556 ± 0.039 kg/m3	0.008155 ± 4.9e-05 mPa·s
298.15 K, 878.68 kPa	18.648 ± 0.04 kg/m3	0.008158 ± 4.9e-05 mPa·s
366.15 K, 68.97 kPa	1.0047 ± 0.003 kg/m3	0.009907 ± 6e-05 mPa·s
366.15 K, 136.86 kPa	2.0051 ± 0.0048 kg/m3	0.009923 ± 6e-05 mPa·s
366.15 K, 270.35 kPa	4.0067 ± 0.0087 kg/m3	0.009941 ± 6e-05 mPa·s
366.15 K, 400.53 kPa	6.0046 ± 0.013 kg/m3	0.009956 ± 6e-05 mPa·s
366.15 K, 527.04 kPa	7.9924 ± 0.017 kg/m3	0.009974 ± 6e-05 mPa·s
366.15 K, 649.96 kPa	9.9702 ± 0.021 kg/m3	0.009996 ± 6e-05 mPa·s
366.15 K, 772.49 kPa	11.99 ± 0.025 kg/m3	0.01002 ± 6e-05 mPa·s
366.15 K, 897.82 kPa	14.109 ± 0.03 kg/m3	0.01005 ± 6.1e-05 mPa·s
366.15 K, 1004.8 kPa	15.963 ± 0.034 kg/m3	0.01007 ± 6.1e-05 mPa·s
366.15 K, 1119.8 kPa	18.006 ± 0.038 kg/m3	0.0101 ± 6.1e-05 mPa·s
366.15 K, 1222.3 kPa	19.872 ± 0.042 kg/m3	0.01013 ± 6.1e-05 mPa·s
366.15 K, 1738.7 kPa	30.044 ± 0.065 kg/m3	0.01032 ± 6.2e-05 mPa·s
366.15 K, 2181.8 kPa	40.086 ± 0.089 kg/m3	0.01055 ± 6.4e-05 mPa·s
366.15 K, 2559.1 kPa	50.015 ± 0.11 kg/m3	0.01083 ± 6.5e-05 mPa·s
366.15 K, 2883 kPa	60.029 ± 0.14 kg/m3	0.01114 ± 6.7e-05 mPa·s
366.15 K, 3154.4 kPa	70.033 ± 0.17 kg/m3	0.01149 ± 6.9e-05 mPa·s
366.15 K, 3381.1 kPa	80.175 ± 0.2 kg/m3	0.0119 ± 7.2e-05 mPa·s
366.15 K, 3559.5 kPa	90.05 ± 0.25 kg/m3	0.01232 ± 7.5e-05 mPa·s
366.15 K, 3704.1 kPa	100.205 ± 0.29 kg/m3	0.01282 ± 7.8e-05 mPa·s
366.15 K, 3704.9 kPa	100.267 ± 0.29 kg/m3	0.01282 ± 7.8e-05 mPa·s
373.15 K, 70 kPa	1.0004 ± 0.003 kg/m3	0.01008 ± 6.1e-05 mPa·s
373.15 K, 139.24 kPa	2.0008 ± 0.0048 kg/m3	0.0101 ± 6.1e-05 mPa·s
373.15 K, 275.58 kPa	4.0037 ± 0.0087 kg/m3	0.01012 ± 6.1e-05 mPa·s
373.15 K, 408.76 kPa	6.0045 ± 0.013 kg/m3	0.01014 ± 6.1e-05 mPa·s
373.15 K, 538.6 kPa	7.9996 ± 0.017 kg/m3	0.01017 ± 6.1e-05 mPa·s
373.15 K, 666.93 kPa	10.017 ± 0.021 kg/m3	0.0102 ± 6.2e-05 mPa·s
373.15 K, 733.66 kPa	11.085 ± 0.023 kg/m3	0.01021 ± 6.2e-05 mPa·s
373.15 K, 917.57 kPa	14.099 ± 0.03 kg/m3	0.01026 ± 6.2e-05 mPa·s
373.15 K, 1023.3 kPa	15.881 ± 0.034 kg/m3	0.01029 ± 6.2e-05 mPa·s
373.15 K, 1147.8 kPa	18.031 ± 0.038 kg/m3	0.01033 ± 6.2e-05 mPa·s
373.15 K, 1248 kPa	19.801 ± 0.042 kg/m3	0.01036 ± 6.2e-05 mPa·s
373.15 K, 1781.8 kPa	29.954 ± 0.064 kg/m3	0.01058 ± 6.4e-05 mPa·s
373.15 K, 1781.9 kPa	29.957 ± 0.064 kg/m3	0.01058 ± 6.4e-05 mPa·s
373.15 K, 2244.2 kPa	39.982 ± 0.087 kg/m3	0.01083 ± 6.6e-05 mPa·s
373.15 K, 2244.5 kPa	39.99 ± 0.087 kg/m3	0.01084 ± 6.6e-05 mPa·s
373.15 K, 2640.8 kPa	49.856 ± 0.11 kg/m3	0.01113 ± 6.7e-05 mPa·s
373.15 K, 2640.9 kPa	49.858 ± 0.11 kg/m3	0.01113 ± 6.7e-05 mPa·s
373.15 K, 2984.3 kPa	59.751 ± 0.14 kg/m3	0.01146 ± 6.9e-05 mPa·s
373.15 K, 2984.4 kPa	59.753 ± 0.14 kg/m3	0.01146 ± 6.9e-05 mPa·s
373.15 K, 3288.7 kPa	70.03 ± 0.17 kg/m3	0.01186 ± 7.1e-05 mPa·s
373.15 K, 3289 kPa	70.041 ± 0.17 kg/m3	0.01186 ± 7.1e-05 mPa·s
373.15 K, 3531.3 kPa	79.736 ± 0.2 kg/m3	0.01227 ± 7.4e-05 mPa·s
373.15 K, 3531.6 kPa	79.746 ± 0.2 kg/m3	0.01227 ± 7.4e-05 mPa·s
373.15 K, 3739.8 kPa	89.698 ± 0.25 kg/m3	0.01273 ± 7.7e-05 mPa·s
373.15 K, 3740.2 kPa	89.72 ± 0.25 kg/m3	0.01273 ± 7.7e-05 mPa·s
373.15 K, 3909.1 kPa	99.505 ± 0.3 kg/m3	0.01323 ± 8.1e-05 mPa·s
373.15 K, 3909.3 kPa	99.518 ± 0.3 kg/m3	0.01323 ± 8.1e-05 mPa·s
373.15 K, 4152.5 kPa	118.628 ± 0.42 kg/m3	0.01431 ± 9.3e-05 mPa·s
373.15 K, 4152.6 kPa	118.636 ± 0.42 kg/m3	0.01431 ± 9.3e-05 mPa·s
373.15 K, 4314.6 kPa	139.152 ± 0.41 kg/m3 and 139.148 ± 0.41 kg/m3	0.01561 ± 9.7e-05 mPa·s
373.15 K, 4400.6 kPa	157.919 ± 0.53 kg/m3	0.01691 ± 0.00011 mPa·s
373.15 K, 4400.7 kPa	157.947 ± 0.53 kg/m3	0.01692 ± 0.00011 mPa·s
373.15 K, 4432.9 kPa	169.072 ± 0.66 kg/m3 and 169.051 ± 0.66 kg/m3 and 169.087 ± 0.66 kg/m3	0.01772 ± 0.00013 mPa·s and 0.01773 ± 0.00013 mPa·s
373.15 K, 4458.2 kPa	181.456 ± 0.75 kg/m3 and 181.487 ± 0.75 kg/m3	0.01876 ± 0.00014 mPa·s
373.15 K, 4477.3 kPa	194.68 ± 0.75 kg/m3	0.02002 ± 0.00014 mPa·s
373.15 K, 4477.4 kPa	194.74 ± 0.75 kg/m3	0.02003 ± 0.00014 mPa·s
373.15 K, 4491.9 kPa	207.584 ± 0.78 kg/m3	0.02135 ± 0.00015 mPa·s
373.15 K, 4492 kPa	207.643 ± 0.78 kg/m3	0.02135 ± 0.00015 mPa·s
373.15 K, 4502.7 kPa	218.095 ± 0.81 kg/m3 and 218.113 ± 0.81 kg/m3	0.02247 ± 0.00016 mPa·s
373.15 K, 4512.2 kPa	227.171 ± 0.83 kg/m3 and 227.14 ± 0.83 kg/m3	0.02347 ± 0.00017 mPa·s
373.15 K, 4515 kPa	229.692 ± 0.84 kg/m3	0.02376 ± 0.00017 mPa·s
